Measurements taken from patent US20160319277A1, “METHODS OF IMPROVED PROTEIN PRODUCTION USING MIRNAs AND SIRNAs” (THE JOHNS HOPKINS UNIVERSITY, priority 2015, published 2016).

Assays:
HEK-CMV-Luc2-Hygro cells = assay: High-throughput genome-wide siRNA screen and validation screen for luciferase expression; format: cell-based, human; details: for Viable cell density (%) / per cell luciferase yield (%): Table 4, primary screen, 72 h, negative control = 100%; for Luciferase activity (%) / Per cell luciferase yield (%) / Viable cell number (%): Table 6, polyamine pathway gene siRNAs
Procedure, shortened: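 HEK cells with CMV-driven luciferase were reverse-transfected with 0.8 pmol siRNA per well (3 per gene) via RNAiMax and grown 72 h at 37 °C. Duplicate wells read for luciferase (ONE-Glo) and viability (CellTiter-Glo). Values given as % of plate negative-control median with MAD-based z-scores; hits with ≥2 siRNAs at z>3 retested using 3 new siRNAs.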

[1] = tested on: T-REx-293-NTSR1-GFP cells; assay: High-throughput human miRNA mimic library screen, image-based per cell green fluorescence (NTSR1-GFP expression); details: per cell green fluorescence intensity; for MAD-based z-score: 72 h after transfection plus 24 h tetracycline induction
Experimental: T-REx-293-NTSR1-GFP cells were screened with a miRNA mimic library (Qiagen) based on Sanger miRBase™ 13.0 and consisting of 875 miRNAs mimics. For transfection, 0.8 pmol of each mimic was spotted to 384 well plate wells (Corning) and 20 μL of serum-free DMEM containing 0.1 μL of Lipofectamine™ RNAiMax (Life Technologies) was then added to each well. This lipid-miRNA mixture was incubated at ambient temperature for 30 min prior to adding 2000 cells in 20 μL of DMEM containing 20% certified FBS (Gibco). Transfected cells were incubated at 37° C. in 5% CO2 for 72 hours and induced with 1 μg/mL tetracycline for 24 hours for NTSR1-GFP expression. Cells were then fixed with 2% paraformaldehyde (Electron Microscopy Sciences), stained with Hoechst™ 33342 (Life Technologies) for 45 minutes and gently washed with PBS. Plates were imaged with an ImageXpress Micro XL™ (Molecular Devices). Total cell number and per cell green fluorescence intensity were calculated using MetaXpress™ software (Molecular Devices) employing the Multi-Wavelength Cell Scoring™ application module. […] A full column of positive control siRNA targeting GFP (GFP-22 siRNA, Qiagen) was also used as on-plate reference for transfection efficiency. The median absolute deviation (MAD)-based z-score was calculated for each sample.

Substance | Luciferase activity (%) (HEK-CMV-Luc2-Hygro cells) | Per cell luciferase yield (%) (HEK-CMV-Luc2-Hygro cells) | Viable cell number (%) (HEK-CMV-Luc2-Hygro cells) | Signal relative to negative control (%) [1] [%] | MAD-based z-score [1] | also measured
208 (CUUUUAAUGUUAAACUACATT; chemistry not given here; listed as Homo sapiens) [compound 208] | – | – | – | – | – | Viable cell density (%) (HEK-CMV-Luc2-Hygro cells): 110.986%; per cell luciferase yield (%) (HEK-CMV-Luc2-Hygro cells): 133.601%
209 (GAACUUCACAAGUUCCUCATT; chemistry not given here; listed as Homo sapiens) [compound 209] | – | – | – | – | – | Viable cell density (%) (HEK-CMV-Luc2-Hygro cells): 84.418%; per cell luciferase yield (%) (HEK-CMV-Luc2-Hygro cells): 228.634%
210 (CAAUGGAACAAUCAAAGUUTT; chemistry not given here; listed as Homo sapiens) [compound 210] | – | – | – | – | – | Viable cell density (%) (HEK-CMV-Luc2-Hygro cells): 89.607%; per cell luciferase yield (%) (HEK-CMV-Luc2-Hygro cells): 180.764%
211 (GGAUUACAGAAACUCCUAUTT; chemistry not given here; listed as Homo sapiens) [compound 211] | – | – | – | – | – | Viable cell density (%) (HEK-CMV-Luc2-Hygro cells): 82.634%; per cell luciferase yield (%) (HEK-CMV-Luc2-Hygro cells): 188.258%
212 (GAGCAGAGAUCAUAACCAATT; chemistry not given here; listed as Homo sapiens) [compound 212] | – | – | – | – | – | Viable cell density (%) (HEK-CMV-Luc2-Hygro cells): 108.211%; per cell luciferase yield (%) (HEK-CMV-Luc2-Hygro cells): 141.104%
213 (GGCUGAAUGUAACAGAGGATT; chemistry not given here; listed as Homo sapiens) [compound 213] | 127.6 | 134.5 | 94.9 | – | – | –
214 (CCGUAGACUCGCUCAUCUCTT; chemistry not given here; listed as Homo sapiens) [compound 214] | 174.4 | 204.2 | 85.4 | – | – | –
215 (GCUAACUUAUUCUACUCCGTT; chemistry not given here; listed as Homo sapiens) [compound 215] | 171.1 | 154.7 | 110.6 | – | – | –
216 (GGGAAUAGUCAGAGGGAUCTT; chemistry not given here; listed as Homo sapiens) [compound 216] | 92.8 | 90.4 | 102.7 | – | – | –
217 (ACAUCGUCCACUUCCAGUATT; chemistry not given here; listed as Homo sapiens) [compound 217] | 97.4 | 101.1 | 96.3 | – | – | –
218 (GGACCUCCCUGUGAAUGAUTT; chemistry not given here; listed as Homo sapiens) [compound 218] | 95.4 | 110.9 | 86.0 | – | – | –
219 (CAGAUGGAUUAUUAGCUGATT; chemistry not given here; listed as Homo sapiens) [compound 219] | 94.9 | 90.0 | 105.4 | – | – | –
220 (CCGGGAAAGUUUGACUGCATT; chemistry not given here; listed as Homo sapiens) [compound 220] | 101.5 | 133.9 | 75.8 | – | – | –
221 (CCACGACCAGCUUAAAGAATT; chemistry not given here; listed as Homo sapiens) [compound 221] | 90.5 | 94.5 | 95.76 | – | – | –
222 (GACUUUCACUUCCGCCUUATT; chemistry not given here; listed as Homo sapiens) [compound 222] | 74.3 | 84.7 | 87.7 | – | – | –
223 (GAUGACUUUUGAUAGUGAATT; chemistry not given here; listed as Homo sapiens) [compound 223] | 18.0 | 32.1 | 56.1 | – | – | –
224 (GCAUGUAUCUGCUUGAUAUTT; chemistry not given here; listed as Homo sapiens) [compound 224] | 20.0 | 39.4 | 50.7 | – | – | –
225 (GCUUGCAGUUAAUAUCAUUTT; chemistry not given here; listed as Homo sapiens) [compound 225] | 28.4 | 46.7 | 60.8 | – | – | –
226 (CACUCGCAGUUAAUAUCAUTT; chemistry not given here; listed as Homo sapiens) [compound 226] | 25.2 | 39.0 | 64.6 | – | – | –

Substance | Luciferase activity (%) (HEK-CMV-Luc2-Hygro cells) | Per cell luciferase yield (%) (HEK-CMV-Luc2-Hygro cells) | Viable cell number (%) (HEK-CMV-Luc2-Hygro cells) | Signal relative to negative control (%) [1] [%] | MAD-based z-score [1] | also measured
227 (CGAUGAACAUGUUAGACAUTT; chemistry not given here; listed as Homo sapiens) [compound 227] | 30.4 | 42.2 | 72.1 | – | – | –
228 (GCCCUCUGUUGGAUAUCUATT; chemistry not given here; listed as Homo sapiens) [compound 228] | 45.6 | 63.2 | 72.1 | – | – | –
AAACCUGUGUUGUUCAAGAGUC (listed as RNA, chemistry not given here; listed as Homo sapiens) [miR-649, human miRNA mimic] | – | – | – | 150 | 2.0 | –
AACUGGCCCUCAAAGUCCCGCU (listed as RNA, chemistry not given here; listed as Homo sapiens) [miR-193b-3p, human miRNA mimic] | – | – | – | 166 | 2.5 | –
AACUGGCCUACAAAGUCCCAGU (listed as RNA, chemistry not given here; listed as Homo sapiens) [miR-193a-3p, human miRNA mimic] | – | – | – | 156 | 2.3 | –
ACAGAUUCGAUUCUAGGGGAAU (listed as RNA, chemistry not given here; listed as Homo sapiens) [miR-10b-3p, human miRNA mimic] | – | – | – | 162 | 2.4 | –
ACUCUUUCCCUGUUGCACUAC (listed as RNA, chemistry not given here; listed as Homo sapiens) [miR-130b-5p, human miRNA mimic] | – | – | – | 178 | 2.9 | –
AGGAGGCAGCGCUCUCAGGAC [miR-650] | – | – | – | 163 | 2.5 | –
CAGUGCAAUAGUAUUGUCAAAGC (listed as RNA, chemistry not given here; listed as Homo sapiens) [miR-301a-3p, human miRNA mimic] | – | – | – | 176 | 2.9 | –
CAUCCCUUGCAUGGUGGAGGG (listed as RNA, chemistry not given here; listed as Homo sapiens) [miR-188-5p, human miRNA mimic] | – | – | – | 177 | 2.9 | –
CUAUACAGUCUACUGUCUUUCC (listed as RNA, chemistry not given here; listed as Homo sapiens) [let-7f-2-3p, human miRNA mimic] | – | – | – | 178 | 3.0 | –
CUGCCAAUUCCAUAGGUCACAG (listed as RNA, chemistry not given here; listed as Homo sapiens) [miR-192-3p, human miRNA mimic] | – | – | – | 148 | 2.0 | –
CUGUGCGUGUGACAGCGGCUGA [miR-210-3p] | – | – | – | 183 | 3.2 | –
GCUACUUCACAACACCAGGGCC (listed as RNA, chemistry not given here; listed as Homo sapiens) [miR-138-1-3p, human miRNA mimic] | – | – | – | 167 | 2.5 | –
GUGUGUGGAAAUGCUUCUGC (listed as RNA, chemistry not given here; listed as Homo sapiens) [miR-147a, human miRNA mimic] | – | – | – | 168 | 2.6 | –
UCCGUCUCAGUUACUUUAUAGC (listed as RNA, chemistry not given here; listed as Homo sapiens) [miR-340-3p, human miRNA mimic] | – | – | – | 159 | 2.3 | –
UGAGGUAGUAGGUUGUAUGGUU (listed as RNA, chemistry not given here; listed as Homo sapiens) [let-7c-5p, human miRNA mimic] | – | – | – | 168 | 2.6 | –
UGAGUGCCGGUGCCUGCCCUG (listed as RNA, chemistry not given here; listed as Homo sapiens) [miR-1909-5p, human miRNA mimic] | – | – | – | 169 | 2.6 | –
